Data from publication PMC9688225, “α-Lipoic Acid Derivatives as Allosteric Modulators for Targeting AMPA-Type Glutamate Receptors’ Gating Modules” (Cells, 2022).
pIC50: −log10 of the molar value. Like-named read-outs stand apart in the source and are kept apart here.

Columns and labels:
Format in all cases: cell-based
[1] = target: T1, GluA2/3 AMPA receptor subunits (flip isoform) (Homo sapiens, UniProt P42262+P42263); test: Whole-cell patch-clamp electrophysiology, heteromeric GluA2/3 expressed in HEK293 cells; conditions: for Amplitude (glutamate + compound): 10 mM glutamate + 12 µM compound, −60 mV, pH 7.4, 22 °C, mean ± SEM; for Amplitude (glutamate + compound) / A/AI (current with glutamate alone / current with glutamate + compound): n = 10; for A/AI (current with glutamate alone / current with glutamate + compound): 10 mM glutamate, 12 µM compound; for IC50 / pIC50: Hill fit; for IC50: read-out: Log IC50 (converted); for t deact (weighted deactivation time constant) / t des (weighted desensitization time constant): glutamate + 12 µM compound; for t deact (weighted deactivation time constant): glutamate alone 2.4±0.3 ms; for t des (weighted desensitization time constant): glutamate alone 2.7±0.3 ms; for pIC50: whole-cell normalized peak amplitude, unit printed in the text, not in Table S6, read-out: IC50
T1 construct: expressed in transfected cells; host or cells: HEK293
Protocol: (§1) Up to 20 μg of high-copy plasmid DNA was prepared using the QIAGEN Plasmid Mini Kit, the tubes were then centrifuged to extract the supernatant containing the plasmid DNA, ethanol was used to wash the DNA pellet, then centrifuged again and the supernatant was carefully removed as to not disturb the pellet, finally, the pellet was air-dried, and the DNA was re-dissolved in a suitable volume of buffer, (our prior study detailed the whole DNA preparation data). The flip isoform was used in all AMPAR subunits used in this investigation. AMPAR subunits were subcloned in pRK and expressed in the human embryonic kidney cells (HEK293) (The HEK293 cell line was obtained from Sigma, Schnelldorf, Germany). IPA (Integrated Patch Amplifier) recorded HEK293 cells 36–48 h after transfection using the patch-clamp method (Sutter Instruments, Novato, CA, USA). A high-speed piezo solution switcher was installed on a double-barreled glass (theta tube) to provide solutions fast, isolate receptor responses from any network influences, and preserve, as much as possible, the postsynaptic protein machinery. Thus, inhibition was measured by comparing the current recorded when glutamate alone was administered to the current observed when glutamate plus the compound of interest was delivered to the same cell. Before administering the α-LA compounds, experiments were conducted to determine the appropriate concentration to be delivered to the cells without harming them. Dichloromethane (12 µM) effect on GluA1 and GluA2 subunits was tested to ensure that it had no effect on AMPA receptor currents (Figure S8). The effect of α-LA compounds on AMPA subunits plateaued at a concentration of 12 µM because LA inhibits AMPA receptors at low concentrations and continues to inhibit them when LA concentrations are increased by 2 µM each interval, as shown in Figure S1. The concentration increased by 2 µM each time to ensure that no cells were harmed. The cells were washed for 20 s between α-LA derivatives (12 µM), and 10 mM glutamate was supplied alone after each α-LA compound to ensure cell health. Data analysis was carried out using Igor Pro7 (Wave Metrics, inc). For both desensitization (τw des) and deactivation rates (τw deact), an exponential fit to the current decline was obtained at 95% of peak to baseline current. The weighted tau (τw) was calculated as τw = (τf × af) + (τs × as), where af and as are the amplitudes of the fast (τf) and slow (τs) exponential components, respectively. Our study detailed the experimental data set.
(§2) Data are presented as mean ± standard error of the mean (SEM). The number of samples (n = 10) refers to the total number of tested HEK293 cells. Statistical differences between the groups and the wild type were examined by One Way Analysis of Variance (ANOVA), with values of p < 0.05 being considered to indicate statistical significance: (*) p < 0.05, (**) p < 0.01, (***) p < 0.001, ns, not significant. Concentration-response relationships were fitted as composite curves using GraphPad Prism version 6.01 (GraphPad Software, San Diego, CA, USA) to the Hill equation. All results were representative of at least three independent experiments.
(§3) Figure 2 Suppression of AMPA receptor currents by α-LA compounds. Graphs (a,c,e,g) present AMPA receptor currents (pA) before and after the administration of α-LA derivatives on GluA1, GluA1/2, GluA2, and GluA2/3 subunits. While (b,d,f,h) present the ratio A/AI, where A represents the current caused by 10 mM glutamate alone and AI represents the current induced by glutamate + α-LA (12 µM). The whole-cell current was measured at −60 mV, pH 7.4, and 22 °C. A one way analysis of variance (ANOVA) was performed for comparison: *** p < 0.001; ns, not significant. Ten cells were investigated for each LA compound. All values are shown as mean SEM.
(§4) Figure 3 The potency of LA compounds against AMPA receptor subunits. […]

[2] = target: T2, GluA1/2 AMPA receptor subunits (flip isoform) (Homo sapiens, UniProt P42261+P42262); test: Whole-cell patch-clamp electrophysiology, heteromeric GluA1/2 expressed in HEK293 cells; conditions: for Amplitude (glutamate + compound): 10 mM glutamate + 12 µM compound, −60 mV, pH 7.4, 22 °C, mean ± SEM; for Amplitude (glutamate + compound) / A/AI (current with glutamate alone / current with glutamate + compound): n = 10; for A/AI (current with glutamate alone / current with glutamate + compound): 10 mM glutamate, 12 µM compound; for IC50 / pIC50: Hill fit; for IC50: read-out: Log IC50 (converted); for t deact (weighted deactivation time constant) / t des (weighted desensitization time constant): glutamate + 12 µM compound; for t deact (weighted deactivation time constant): glutamate alone 2.5±0.3 ms; for t des (weighted desensitization time constant): glutamate alone 5.3±0.4 ms; for pIC50: whole-cell normalized peak amplitude, unit printed in the text, not in Table S6, read-out: IC50
T2 construct: expressed in transfected cells; host or cells: HEK293
Protocol: as §1, §2, §3, §4

[3] = target: T3, GluA2 AMPA receptor subunit (flip isoform) (Homo sapiens, UniProt P42262); test: Whole-cell patch-clamp electrophysiology, homomeric GluA2 expressed in HEK293 cells; conditions: for Amplitude (glutamate + compound): 10 mM glutamate + 12 µM compound, −60 mV, pH 7.4, 22 °C, mean ± SEM; for Amplitude (glutamate + compound) / A/AI (current with glutamate alone / current with glutamate + compound): n = 10; for A/AI (current with glutamate alone / current with glutamate + compound): 10 mM glutamate, 12 µM compound; for IC50 / pIC50: Hill fit; for IC50: read-out: Log IC50 (converted); for t deact (weighted deactivation time constant) / t des (weighted desensitization time constant): glutamate + 12 µM compound; for t deact (weighted deactivation time constant): glutamate alone 2.4±0.1 ms; for t des (weighted desensitization time constant): glutamate alone 2.6±0.1 ms; for pIC50: whole-cell normalized peak amplitude, unit printed in the text, not in Table S6, read-out: IC50
T3 construct: expressed in transfected cells; host or cells: HEK293
Protocol: as §1, §2, §3, §4

[4] = target: T4, GluA1 AMPA receptor subunit (flip isoform) (Homo sapiens, UniProt P42261); test: Whole-cell patch-clamp electrophysiology, homomeric GluA1 expressed in HEK293 cells; conditions: for Amplitude (glutamate + compound): 10 mM glutamate + 12 µM compound, −60 mV, pH 7.4, 22 °C, mean ± SEM; for Amplitude (glutamate + compound) / A/AI (current with glutamate alone / current with glutamate + compound): n = 10; for A/AI (current with glutamate alone / current with glutamate + compound): 10 mM glutamate, 12 µM compound; for IC50 / pIC50: Hill fit; for IC50: read-out: Log IC50 (converted); for t deact (weighted deactivation time constant) / t des (weighted desensitization time constant): glutamate + 12 µM compound; for t deact (weighted deactivation time constant): glutamate alone 2.2±0.1 ms; for t des (weighted desensitization time constant): glutamate alone 2.3±0.1 ms; for pIC50: whole-cell normalized peak amplitude, unit printed in the text, not in Table S6, read-out: IC50
T4 construct: expressed in transfected cells; host or cells: HEK293
Protocol: as §1, §2, §3, §4

[5] = tested on: AMPA receptor subunits (GluA1, GluA2, GluA1/2, GluA2/3); test: Whole-cell patch-clamp electrophysiology, summary over the AMPA receptor subunits in HEK293 cells
Protocol: as §1, §2
The levels of inhibition of α-LA and its derivatives attracted our attention to assessing the potency of the compounds in a concentration-dependent manner. […] The concentration−inhibition curves were produced by administering glutamate alone at a concentration of 10 mM, followed by glutamate + α-LA derivatives at varying concentrations (in μM) for every recording point. Afterward, the cells were normalized back by administering glutamate alone. Since the glutamate concentration in the synaptic cleft constantly saturates the receptors, driving the response to a near maximum level, variability occurs because the maximum level changes. […]

[6] = all AMPA receptor subunits, 12 µM compound

T2 sequence (P42261 19-906 isoform P42261-2 limits assumed): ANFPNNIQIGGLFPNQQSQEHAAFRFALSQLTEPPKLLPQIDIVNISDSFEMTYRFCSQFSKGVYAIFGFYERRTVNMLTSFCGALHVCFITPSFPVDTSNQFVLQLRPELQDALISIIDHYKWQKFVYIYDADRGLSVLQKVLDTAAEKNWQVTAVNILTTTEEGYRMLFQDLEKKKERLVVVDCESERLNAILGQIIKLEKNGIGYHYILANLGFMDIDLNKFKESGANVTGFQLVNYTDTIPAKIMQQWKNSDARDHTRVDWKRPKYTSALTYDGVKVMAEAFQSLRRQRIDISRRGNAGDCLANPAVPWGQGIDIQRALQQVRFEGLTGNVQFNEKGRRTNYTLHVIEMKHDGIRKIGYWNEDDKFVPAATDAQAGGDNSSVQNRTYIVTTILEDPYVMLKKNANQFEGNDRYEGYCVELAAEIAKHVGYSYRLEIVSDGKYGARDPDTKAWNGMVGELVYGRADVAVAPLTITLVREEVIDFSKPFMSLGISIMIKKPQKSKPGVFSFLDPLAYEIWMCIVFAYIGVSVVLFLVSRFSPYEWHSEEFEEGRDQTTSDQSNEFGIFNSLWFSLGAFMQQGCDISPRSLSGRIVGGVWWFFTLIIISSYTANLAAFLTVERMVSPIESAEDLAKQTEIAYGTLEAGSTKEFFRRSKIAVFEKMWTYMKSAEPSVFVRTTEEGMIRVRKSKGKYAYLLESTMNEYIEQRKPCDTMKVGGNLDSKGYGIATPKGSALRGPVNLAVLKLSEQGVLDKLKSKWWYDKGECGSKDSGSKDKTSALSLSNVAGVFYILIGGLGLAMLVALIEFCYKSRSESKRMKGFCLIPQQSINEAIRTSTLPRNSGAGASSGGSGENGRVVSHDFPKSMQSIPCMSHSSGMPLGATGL
T2 sequence (P42262 25-883 isoform P42262-2 limits assumed): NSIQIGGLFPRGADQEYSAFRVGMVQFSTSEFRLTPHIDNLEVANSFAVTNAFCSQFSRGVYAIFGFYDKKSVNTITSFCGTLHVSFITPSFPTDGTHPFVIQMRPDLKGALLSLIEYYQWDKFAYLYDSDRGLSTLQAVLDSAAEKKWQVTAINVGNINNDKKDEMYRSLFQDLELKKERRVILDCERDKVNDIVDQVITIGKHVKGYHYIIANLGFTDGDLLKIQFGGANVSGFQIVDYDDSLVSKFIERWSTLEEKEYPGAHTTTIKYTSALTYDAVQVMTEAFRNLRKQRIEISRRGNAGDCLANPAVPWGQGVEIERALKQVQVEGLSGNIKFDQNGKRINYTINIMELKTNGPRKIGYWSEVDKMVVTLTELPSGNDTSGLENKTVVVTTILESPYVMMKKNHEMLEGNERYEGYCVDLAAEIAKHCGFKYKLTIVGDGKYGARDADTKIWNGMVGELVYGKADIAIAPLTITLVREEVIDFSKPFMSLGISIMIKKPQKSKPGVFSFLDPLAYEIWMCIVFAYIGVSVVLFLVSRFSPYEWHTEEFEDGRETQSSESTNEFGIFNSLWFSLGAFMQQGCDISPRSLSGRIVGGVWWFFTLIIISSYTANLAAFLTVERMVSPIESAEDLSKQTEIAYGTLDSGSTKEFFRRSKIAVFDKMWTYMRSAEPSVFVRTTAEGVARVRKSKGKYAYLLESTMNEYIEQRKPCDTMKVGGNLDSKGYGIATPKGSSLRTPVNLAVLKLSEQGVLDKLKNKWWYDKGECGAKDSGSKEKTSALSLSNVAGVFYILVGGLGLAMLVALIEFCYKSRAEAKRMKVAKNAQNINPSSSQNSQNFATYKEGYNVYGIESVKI
T4 sequence (P42261 19-906 isoform P42261-2 limits assumed): as the sequence (P42261 19-906 isoform P42261-2 limits assumed) above
T3 sequence (P42262 25-883 isoform P42262-2 limits assumed): as the sequence (P42262 25-883 isoform P42262-2 limits assumed) above
T1 sequence (P42262 25-883 isoform P42262-2 limits assumed): as above
T1 sequence (P42263 29-894 isoform P42263-2 limits assumed): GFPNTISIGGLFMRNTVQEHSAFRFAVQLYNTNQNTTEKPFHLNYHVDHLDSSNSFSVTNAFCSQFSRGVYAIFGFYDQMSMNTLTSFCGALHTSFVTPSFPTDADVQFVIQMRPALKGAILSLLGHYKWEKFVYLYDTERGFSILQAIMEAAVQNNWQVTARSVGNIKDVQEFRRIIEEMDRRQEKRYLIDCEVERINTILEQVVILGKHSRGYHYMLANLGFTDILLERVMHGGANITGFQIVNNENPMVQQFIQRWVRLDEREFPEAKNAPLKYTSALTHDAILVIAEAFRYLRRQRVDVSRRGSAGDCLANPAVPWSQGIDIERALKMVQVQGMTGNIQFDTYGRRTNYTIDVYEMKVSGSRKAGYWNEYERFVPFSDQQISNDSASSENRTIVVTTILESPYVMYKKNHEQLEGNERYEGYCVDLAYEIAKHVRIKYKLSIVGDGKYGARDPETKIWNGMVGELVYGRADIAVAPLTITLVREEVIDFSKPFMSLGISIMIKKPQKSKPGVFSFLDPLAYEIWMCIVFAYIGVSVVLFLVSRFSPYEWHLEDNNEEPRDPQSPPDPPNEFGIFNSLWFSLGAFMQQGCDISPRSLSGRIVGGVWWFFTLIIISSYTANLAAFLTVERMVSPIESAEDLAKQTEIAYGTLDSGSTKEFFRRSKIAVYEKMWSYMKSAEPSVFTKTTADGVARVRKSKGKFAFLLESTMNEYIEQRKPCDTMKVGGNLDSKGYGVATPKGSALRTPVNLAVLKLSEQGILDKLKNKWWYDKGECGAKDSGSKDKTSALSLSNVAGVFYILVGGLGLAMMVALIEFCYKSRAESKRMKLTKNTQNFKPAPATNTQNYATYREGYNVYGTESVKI

Row | SMILES | Amplitude (glutamate + compound) [1] [pA] | A/AI (current with glutamate alone / current with glutamate + compound) [1] | IC50 [1] [µM] | t deact (weighted deactivation time constant) [1] [ms] | t des (weighted desensitization time constant) [1] [ms] | pIC50 [1] | Amplitude (glutamate + compound) [2] [pA] | A/AI (current with glutamate alone / current with glutamate + compound) [2] | IC50 [2] [µM] | t deact (weighted deactivation time constant) [2] [ms] | t des (weighted desensitization time constant) [2] [ms] | pIC50 [2] | Amplitude (glutamate + compound) [3] [pA] | A/AI (current with glutamate alone / current with glutamate + compound) [3] | IC50 [3] [µM] | t deact (weighted deactivation time constant) [3] [ms] | t des (weighted desensitization time constant) [3] [ms] | pIC50 [3] | Amplitude (glutamate + compound) [4] [pA] | A/AI (current with glutamate alone / current with glutamate + compound) [4] | further results
1 | O=C(CCCCC1CCSS1)OCCCO[N+](=O)[O-] (stereo not drawn) [LA2, 1-Nitrooxy–propane-3-lipoyl ester] | 46±7.0 | 11.03±1.0 | 3.63 | 10.8 ± 0.9 | 0.9 ± 0.09 | 5.44 | 57±8.0 | 11.34±0.9 | 3.39 | 11.1 ± 0.9 | 2.7 ± 0.2 | 5.47 | 112±17.0 | 11.16±0.7 | 3.55 | 10.9 ± 0.7 | 0.8 ± 0.08 | 5.45 | 79±11.0 | 11.53±0.8 | IC50 [4]: 3.39 µM; t deact (weighted deactivation time constant) [4]: 11.6 ± 0.7 ms; t des (weighted desensitization time constant) [4]: 0.6 ± 0.1 ms; pIC50 [4]: 5.47; decrease in the peak current of the AMPARs [5, 6]: ~11 fold; increase of the rate of AMPA receptor deactivation (τw deact) [5, 6]: approximately 5 fold; reduction in the rate of desensitization (τw des) [5, 6]: 3–4 fold; pIC50 ([5]; over GluA1, GluA1/2, GluA2, GluA2/3, read-out: approximate IC50 against AMPA receptor subunits): ~5.46
2 | O=C(CCCCC1CCSS1)OCCCCCCO[N+](=O)[O-] (stereo not drawn) [LA3, 1-Nitrooxy–Hexane-6-lipoyl ester] | 71±14.0 | 7.84±0.9 | 4.47 | 7.6 ± 0.7 | 1.9 ± 0.1 | 5.35 | 81±12.0 | 8.05±0.8 | 4.37 | 7.9 ± 0.67 | 3.6 ± 0.2 | 5.36 | 155±25 | 7.91±0.7 | 4.37 | 7.7 ± 0.3 | 1.8 ± 0.04 | 5.36 | 114±12.0 | 8.13±0.6 | IC50 [4]: 3.63 µM; t deact (weighted deactivation time constant) [4]: 8.1 ± 0.4 ms; t des (weighted desensitization time constant) [4]: 1.7 ± 0.1 ms; pIC50 [4]: 5.44; decrease in the peak current of the AMPARs [5, 6]: roughly 8 fold; increase of the rate of AMPA receptor deactivation (τw deact) [5, 6]: roughly 3 fold
